Experiment [1] addresses rat Fatty Acid Amide Hydrolase (FAAH) (Rattus norvegicus (Rat), UniProt P97612). Description: FAAH in vitro fluorescence assay (AAMCA hydrolysis), rat enzyme. In kind it is biochemical. The note with it: rat FAAH; for IC50: read-out: rFAAH IC50; for inhibition at 0.1 µM: read-out: rFAAH % inhibition at 100 nM, 100 nM (tier I). How it is done: Material and Reagents: All reagents were purchased from Sigma-Aldrich unless specified. […] Chaperone protein groEL-groES in pGRO7 plasmid (Takara Bio Inc, Japan) was co-expressed with Fatty Acid Amide Hydrolase (FAAH) to improve solubility of the protein expressed in E coli. […] Briefly, the bacterial cultures in Luria Broth (2 L) were induced with arabinose (2 mM) and Isopropyl (β-D-1-thiogalactopyranoside, IPTG (1 mM), for 20 h at room temperature. The cultures were centrifuged at 1200×g for 10 min and the cell pellet was resuspended in 100 mL buffer containing of 20 mM NaPi (pH 7.4), 100 mM NaCl, Benzonase (500u), Aprotinin (1 μg/mL) and Leupeptin (1 μg/mL). Cells were lyzed by sonication (Amp 20%, Pulse 15 s×15, on ice) and the cell debris removed by centrifugation at 5000×g for 20 min. The supernatant was enriched via ultracentrifugation at 100,000×g for 1 h and the cell pellet was resuspended in 16 mL buffer containing 20 mM NaPi (pH 7.8), 500 mM NaCl, 1% Triton X-100. The resuspended cell extract was subjected to ultra-centrifugation at 100,000×g for 1 h and the enriched supernatant was used in the in vitro assay. All protein extraction steps were carried out on ice or at 4° C.
The assay was carried out in 200 μL volume in a 96-well black polystyrene plate (Greiner Bio-one, Germany). Each reaction consisted of human Fatty Acid Amide Hydrolase (FAAH) protein and 10 μM AAMCA in assay buffer containing 50 mM HEPES, 1 mM EDTA and 0.1% BSA, pH 7.4. The reaction was incubated with 2 μL of varying concentrations of inhibitor in DMSO (final concentration of DMSO 1%) with shaking for 1 min and monitored for increase in fluorescence in kinetic mode for 50 min. […] Rate of reaction as a function of the concentration of the inhibitor was used to determine the IC50 of the inhibitors. Data was analyzed using GraphPad Prism 5 (GraphPad Software Inc., San Diego, Calif.). The activity of the compounds for rat Fatty Acid Amide Hydrolase (FAAH) was evaluated as described above with rat Fatty Acid Amide Hydrolase (FAAH) protein and 10 μM AAMCA substrate.

For experiment [2], the target named is human Fatty Acid Amide Hydrolase (FAAH) (Homo sapiens (Human), UniProt O00519). Description: biochemical. The conditions noted are these: for inhibition at 0.1 µM: read-out: hFAAH % inhibition at 100 nM, 100 nM (tier I).
human Fatty Acid Amide Hydrolase (FAAH), sequence (O00519 30-579): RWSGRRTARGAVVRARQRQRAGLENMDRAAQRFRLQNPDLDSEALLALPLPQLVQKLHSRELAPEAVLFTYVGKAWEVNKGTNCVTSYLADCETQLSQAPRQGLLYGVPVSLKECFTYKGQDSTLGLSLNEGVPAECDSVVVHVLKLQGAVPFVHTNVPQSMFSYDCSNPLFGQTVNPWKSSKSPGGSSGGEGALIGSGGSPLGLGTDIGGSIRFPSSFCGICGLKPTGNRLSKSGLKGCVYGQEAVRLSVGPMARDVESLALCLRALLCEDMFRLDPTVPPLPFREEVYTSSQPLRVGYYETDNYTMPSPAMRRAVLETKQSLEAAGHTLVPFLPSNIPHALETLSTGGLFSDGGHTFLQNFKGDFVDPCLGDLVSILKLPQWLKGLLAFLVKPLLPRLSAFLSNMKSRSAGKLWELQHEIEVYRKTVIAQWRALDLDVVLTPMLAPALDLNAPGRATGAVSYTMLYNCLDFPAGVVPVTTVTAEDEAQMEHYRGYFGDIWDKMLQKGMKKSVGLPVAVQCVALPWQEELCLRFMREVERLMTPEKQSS
The mark [3] stands for this setting: human FAAH, read-out: hFAAH IC50.

Counter-ions that a name gives are not always drawn. Like-named read-outs stand apart in the source and are kept apart here.

rat Fatty Acid Amide Hydrolase (FAAH), sequence (P97612 30-579): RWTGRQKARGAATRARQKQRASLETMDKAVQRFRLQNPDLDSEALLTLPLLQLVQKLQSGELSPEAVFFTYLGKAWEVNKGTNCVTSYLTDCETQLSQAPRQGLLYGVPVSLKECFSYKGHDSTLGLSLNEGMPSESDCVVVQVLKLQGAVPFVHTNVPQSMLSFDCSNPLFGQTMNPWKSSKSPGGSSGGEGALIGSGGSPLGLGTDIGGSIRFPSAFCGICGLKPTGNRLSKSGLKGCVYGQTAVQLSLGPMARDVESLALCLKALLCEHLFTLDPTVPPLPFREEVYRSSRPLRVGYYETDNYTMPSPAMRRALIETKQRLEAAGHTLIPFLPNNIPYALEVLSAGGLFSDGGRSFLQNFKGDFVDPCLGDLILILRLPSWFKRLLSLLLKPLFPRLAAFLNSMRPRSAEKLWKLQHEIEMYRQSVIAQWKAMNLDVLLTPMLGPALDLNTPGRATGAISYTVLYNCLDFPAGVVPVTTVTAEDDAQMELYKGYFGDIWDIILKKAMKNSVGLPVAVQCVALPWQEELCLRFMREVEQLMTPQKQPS

The term inhibition denotes the percentage by which the read-out fell short of the control. As to `O=C(NC1CCC(=Cc2cccc(Oc3ccc(C(F)(F)F)cn3)c2)CC1)c1cccnc1` (single isomer, unassigned; (+)) [Example 20.A-1, (+)-N-[4-[[3-[[5-(Trifluoromethyl)-2-pyridyl]oxy]phenyl]methylene]cyclohexyl]pyridine-3-carboxamide], in experiment [1] (read-out: rFAAH % inhibition at 10 uM, 10 uM), the inhibition at 10 µM turned out to be 60%.

In general, IC50 refers to the concentration that inhibits the measured activity by half. `CNc1ccc(C(=O)NC2CCC(=Cc3cccc(Oc4ccc(C(F)(F)F)cn4)c3)CC2)cn1` (stereo not drawn) [Example 5.A-1, 6-(Methylamino)-N-[4-[[3-[[5-(trifluoromethyl)-2-pyridyl]oxy]phenyl]methylene]cyclohexyl]pyridine-3-carboxamide]: the results for the IC50 in experiment [1] and in experiment [2] (read-out: hFAAH IC50) were 11 nM and 4 nM, respectively.

Turning to `Nc1ncc(C(=O)NC2CCC(=Cc3cccc(Oc4ccc(C(F)(F)F)cn4)c3)CC2)cn1` (single isomer, unassigned; (+)) [Example 20.A-9], in experiment [2] (read-out: hFAAH IC50), the half-inhibitory concentration (IC50) worked out at 40 nM.

For `Nc1ncccc1C(=O)NC1CCC(=Cc2cccc(Oc3ccc(C(F)(F)F)cn3)c2)CC1` (stereo not drawn) [Example 2.C-5, 2-Amino-N-[4-[[3-[[5-(trifluoromethyl)-2-pyridyl]oxy]phenyl]methylene]cyclohexyl]pyridine-3-carboxamide], in experiment [2] (setting [3]), the half-inhibitory concentration (IC50) came out at 37 nM.

As for `O=C(NC1CCC(=Cc2cccc(Oc3ccc(C(F)(F)F)cn3)c2)CC1)c1ccncc1` (stereo not drawn) [Example 2.A-8, N-[4-[[3-[[5-(Trifluoromethyl)-2-pyridyl]oxy]phenyl]methylene]cyclohexyl]pyridine-4-carboxamide], the inhibition at 0.1 µM in experiment [1] worked out at 14%. For the same compound, the half-inhibitory concentration (IC50) in experiment [2] (setting [3]) is 14 nM.

For `O=C(NC1CCC(=Cc2cccc(Oc3ccc(C(F)(F)F)cn3)c2)CC1)c1ccc(-n2cccn2)nc1` (stereo not drawn) [Example 5.A-6, 6-Pyrazol-1-yl-N-[4-[[3-[[5-(trifluoromemyl)-2-pyridyl]oxy]phenyl]methylene]cyclohexyl]pyridine-3-carboxamide], the IC50 in experiment [1] and in experiment [2] (read-out: hFAAH IC50) was 7 nM throughout.

As for `Cc1n[nH]c(C(C)C)c1C(=O)NC1CCC(=Cc2cccc(Oc3ccc(C(F)(F)F)cn3)c2)CC1` (stereo not drawn) [Example 2.A-38, 5-Isopropyl-3-methyl-N-[4-[[3-[[5-(trifluoromethyl)-2-pyridyl]oxy]phenyl]methylene]cyclohexyl]-1H-pyrazole-4-carboxamide], the inhibition at 0.1 µM in experiment [1] was 54%; in experiment [2] (human FAAH) it was 20%.

Turning to `O=C(NC1CCC(=Cc2cccc(Oc3ccc(C(F)(F)F)cn3)c2)CC1)c1cn[nH]n1` (stereo not drawn) [Example 2.A-19, N-[4-[[3-[[5-(Trifluoromethyl)-2-pyridyl]oxy]phenyl]methylene]cyclohexyl]-2H-triazole-4-carboxamide], the 50% inhibitory concentration (IC50) in experiment [1] turned out to be 145 nM; in experiment [2] (setting [3]), 6 nM.

Regarding `O=C(Nc1cccnn1)C1CCC(=Cc2cccc(Oc3ccc(C(F)(F)F)cn3)c2)CC1` (stereo not drawn) [Example 1.A-1, N-Pyridazin-3-yl-4-[[3-[[5-(trifluoromethyl)-2-pyridyl]oxy]phenyl]methylene]cyclohexanecarboxamide], the IC50 in experiment [2] (setting [3]) stood at 17 nM.

`O=C(NC1CCC(=Cc2cccc(Oc3ccc(C(F)(F)F)cn3)c2)CC1)c1nc2cccnc2s1` [Example 2.D-3, N-[4-[[3-[[5-(Trifluoromethyl)-2-pyridyl]oxy]phenyl]methylene]cyclohexyl]thiazolo[5,4-b]pyridine-2-carboxamide]: the inhibition at 0.1 µM in experiment [1] was 38%.

For `O=C(NC1CCC(=Cc2cccc(Oc3ccc(C(F)(F)F)cn3)c2)CC1)c1cccnc1` (stereo not drawn) [Example 2.1, N-[4-[[3-[[5-(Trifluoromethyl)-2-pyridyl]oxy]phenyl]methylene]cyclohexyl]pyridine-3-carboxamide], the IC50 in experiment [2] (hFAAH IC50) was found to be 2 nM.

In the case of `O=C(NC1CCC(=Cc2cccc(Oc3ccc(C(F)(F)F)cn3)c2)CC1)c1ccc(O)nc1` (stereo not drawn) [Example 2.C-3, 6-Hydroxy-N-[4-[[3-[[5-(trifluoromethyl)-2-pyridyl]oxy]phenyl]methylene]cyclohexyl]pyridine-3-carboxamide], in experiment [2] (setting [3]), the IC50 amounted to 19 nM.

Regarding `Cc1nc(Oc2cccc(C=C3CCC(NC(=O)c4cnc(N)nc4)CC3)c2)ccc1Cl` (single isomer, unassigned; (+)) [Example 20.A-21, (+)-2-Amino-N-[4-[[3-[(5-chloro-6-methyl-2-pyridyl)oxy]phenyl]methylene]cyclohexyl]pyrimidine-5-carboxamide], the concentration for half-maximal inhibition (IC50) in experiment [2] (setting [3]) was determined as 9 nM.

Consider `Cc1nc(Oc2cccc(C=C3CCC(NC(=O)c4cnc(N)nc4)CC3)c2)ccc1Cl` (single isomer, unassigned; (-)) [Example 20.A-22, (−)-2-Amino-N-[4-[[3-[(5-chloro-6-methyl-2-pyridyl)oxy]phenyl]methylene]cyclohexyl]pyrimidine-5-carboxamide], for which the IC50 in experiment [2] (setting [3]) came out at 1.1 nM.

For the compound `Cc1[nH]nc(C(F)(F)F)c1C(=O)NC1CCC(=Cc2cccc(Oc3ccc(C(F)(F)F)cn3)c2)CC1` (stereo not drawn) [Example 2.A-36, 5-Methyl-3-(trifluoromethyl)-N-[4-[[3-[[5-(trifluoromethyl)-2-pyridyl]oxy]phenyl]methylene]cyclohexyl]-1H-pyrazole-4-carboxamide], in experiment [2] (human FAAH), the inhibition at 0.1 µM amounted to 50%.

Take `O=C(NC1CCC(=Cc2cccc(Oc3ccc(C(F)(F)F)cn3)c2)CC1)c1cccnc1` (single isomer, unassigned; (-)) [Example 20.A-2, (−)-N-[4-[[3-[[5-(Trifluoromethyl)-2-pyridyl]oxy]phenyl]methylene]cyclohexyl]pyridine-3-carboxamide]: the IC50 in experiment [2] (hFAAH IC50) was 0.7 nM.

Compound `O=C(Nc1cccnc1)C1CCC(=Cc2cccc(Oc3ccc(C(F)(F)F)cn3)c2)CC1` (stereo not drawn) [Example 1.2, N-(3-Pyridyl)-4-[[3-[[5-(trifluoromethyl)-2-pyridyl]oxy]phenyl]-methylene]cyclohexanecarboxamide hydrochloride] registered an IC50 in experiment [2] (hFAAH IC50) of 17 nM.

Consider `O=C(NC1CCC(=Cc2cccc(Oc3ccc(C(F)(F)F)cn3)c2)CC1)c1cncnc1` (single isomer, unassigned; (-)) [Example 20.A-20, (−)-N-[4-[[3-[[5-(Trifluoromethyl)-2-pyridyl]oxy]phenyl]methylene]cyclohexyl]pyrimidine-5-carboxamide], for which the IC50 in experiment [2] (read-out: hFAAH IC50) was 0.8 nM.

For `O=C(O)Cn1cc(C(=O)NC2CCC(=Cc3cccc(Oc4ccc(C(F)(F)F)cn4)c3)CC2)cn1` (stereo not drawn) [Example 8.A-2, 2-[4-[[4-[[3-[[5-(Trifluoromethyl)-2-pyridyl]oxy]phenyl]methylene]cyclohexyl]carbamoyl]pyrazol-1-yl]acetic acid], the inhibition at 0.1 µM in experiment [2] (human FAAH) was 40%.

Consider `O=C(NC1CCC(=Cc2cccc(Oc3ccc(C(F)(F)F)cn3)c2)CC1)c1cncnc1` (single isomer, unassigned; (+)) [Example 20.A-19, (+)-N-[4-[[3-[[5-(trifluoromethyl)-2-pyridyl]oxy]phenyl]methylene]cyclohexyl]pyrimidine-5-carboxamide], for which, in experiment [2] (read-out: hFAAH IC50), the 50% inhibitory concentration (IC50) stood at 14.3 nM.

As to `Cc1cc(C(=O)NC2CCC(=Cc3cccc(Oc4ccc(C(F)(F)F)cn4)c3)CC2)cnc1N` (single isomer, unassigned; (+)) [Example 20.A-5, (+)-6-Amino-5-methyl-N-[4-[[3-[[5-(trifluoromethyl)-2-pyridyl]oxy]phenyl]methylene]cyclohexyl]pyridine-3-carboxamide], in experiment [2] (setting [3]), the IC50 came out at 247 nM.

On to `O=C(NC1CCC(=Cc2cccc(Oc3ccc(C(F)(F)F)cn3)c2)CC1)c1ccc(-n2ccc(C(=O)O)n2)nc1` (stereo not drawn) [Example 8.A-5, 1-[5-[[4-[[3-[[5-(Trifluoromethyl)-2-pyridyl]oxy]phenyl]methylene]cyclohexyl]carbamoyl]-2-pyridyl]pyrazole-3-carboxylic acid], for which the inhibition at 0.1 µM in experiment [1] amounted to 55%.
